Measurements published in the NIST ThermoML archive (doi:10.1016/j.jct.2017.02.004).

Legend:
[1] = 100 kPa, Liquid; for speed of sound: Frequency=3 MHz, Single path-length method; for mass density: Vibrating tube method
[2] = mn = molality of the nth substance listed, in mol/kg; details: 100 kPa, Liquid; for speed of sound: Frequency=3 MHz, Single path-length method; for mass density: Vibrating tube method

CCCCn1cc[n+](C)c1.F[B-](F)(F)F [1-butyl-3-methylimidazolium tetrafluoroborate]
[1]
Details	mass density [kg/m3]	speed of sound [m/s]
288.15 K	1209.05	1591
293.15 K	1205.5	1578.9
298.15 K	1201.96	1566.9
303.15 K	1198.42	1555.1
308.15 K	1194.87	1543.4

CCCCn1cc[n+](C)c1.F[B-](F)(F)F [1-butyl-3-methylimidazolium tetrafluoroborate] + [Cl-].[Li+]
[2], m2 = 0
Details	mass density [kg/m3]	speed of sound [m/s]
288.15 K	1209.05	1591
293.15 K	1205.5	1578.9
298.15 K	1201.96	1566.9
303.15 K	1198.42	1555.1
308.15 K	1194.87	1543.4

[Cl-].[Li+] [lithium chloride] + CCCCn1cc[n+](C)c1.F[B-](F)(F)F
[2]
Details	mass density, 288.15 K [kg/m3]	mass density, 293.15 K [kg/m3]	mass density, 298.15 K [kg/m3]	mass density, 303.15 K [kg/m3]	mass density, 308.15 K [kg/m3]	speed of sound, 288.15 K [m/s]	speed of sound, 293.15 K [m/s]	speed of sound, 298.15 K [m/s]	speed of sound, 303.15 K [m/s]	speed of sound, 308.15 K [m/s]
m1 = 0.0999	1211.1	1207.56	1204.03	1200.53	1196.98	1595.5	1583.3	1571.2	1559.4	1547.7
m1 = 0.1499	1212.17	1208.61	1205.08	1201.61	1198.07	1597.7	1585.4	1573.3	1561.4	1549.7
m1 = 0.2	1213.24	1209.68	1206.14	1202.69	1199.16	1599.7	1587.3	1575.2	1563.3	1551.5
m1 = 0.2501	1214.33	1210.73	1207.22	1203.79	1200.27	1601.7	1589.2	–	1565.1	1553.2
m1 = 0.3003	1215.46	1211.88	1208.31	1204.94	1201.37	1603.5	1591	1578.7	1566.7	1554.9
m1 = 0.3498	1216.56	1212.93	1209.36	1206.04	1202.5	1605.3	1592.6	1580.3	1568.2	1556.2
